Data: patent US7834028B2, “Pyrazolo-tetrahydro pyridine derivatives as orexin receptor antagonists” (Actelion Pharmaceuticals Ltd., priority 2006, dated 2010)
pIC50: −log10 of the molar value.

Key:
human orexin-1 receptor = target: T1, human orexin-1 receptor (Homo sapiens, UniProt O43613); assay: Intracellular calcium measurements (FLIPR), orexin-A induced, CHO cells expressing human orexin-1 receptor; assay type: cell-based; conditions: 10 nM orexin-A as agonist, read-out: IC50 OX1
T1 construct: expressed in transfected cells; host or cells: CHO cells (G418 selection)
T1 sequence (O43613 1-425): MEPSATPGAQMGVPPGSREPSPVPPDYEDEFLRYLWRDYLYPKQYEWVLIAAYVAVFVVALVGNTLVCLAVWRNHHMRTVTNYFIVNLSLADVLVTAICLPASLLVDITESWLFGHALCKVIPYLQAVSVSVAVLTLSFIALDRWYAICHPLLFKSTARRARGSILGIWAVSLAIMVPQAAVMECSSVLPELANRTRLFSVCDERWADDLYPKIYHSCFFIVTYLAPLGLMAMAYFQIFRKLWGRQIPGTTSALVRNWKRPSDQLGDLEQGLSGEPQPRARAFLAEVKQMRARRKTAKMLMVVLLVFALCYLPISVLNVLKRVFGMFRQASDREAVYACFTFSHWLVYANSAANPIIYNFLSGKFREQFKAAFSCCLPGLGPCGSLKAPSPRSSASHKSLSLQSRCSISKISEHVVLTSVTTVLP
Experimental: (§1) The orexin receptor antagonistic activity of the compounds of formula (I) and/or (Ia) is determined in accordance with the following experimental method.
(§2) Intracellular Calcium Measurements:
(§3) Chinese hamster ovary (CHO) cells expressing the human orexin-1 receptor and the human orexin-2 receptor, respectively, are grown in culture medium (Ham F-12 with L-Glutamine) containing 300 μg/ml G418, 100 U/ml penicillin, 100 μg/ml streptomycin and 10% inactivated fetal calf serum (FCS). The cells are seeded at 80'000 cells/well into 96-well black clear bottom sterile plates (Costar) which have been precoated with 1% gelatine in Hanks' Balanced Salt Solution (HBSS). All reagents are from Gibco BRL. The seeded plates are incubated overnight at 37° C. in 5% CO2.
(§4) Human orexin-A as an agonist is prepared as 1 mM stock solution in methanol:water (1:1), diluted in HBSS containing 0.1% bovine serum albumin (BSA) and 2 mM HEPES for use in the assay at a final concentration of 10 nM.
(§5) Antagonists are prepared as 10 mM stock solution in DMSO, then diluted in 96-well plates, first in DMSO, then in HBSS containing 0.1% bovine serum albumin (BSA) and 2 mM HEPES.
(§6) On the day of the assay, 100 μl of loading medium (HBSS containing 1% FCS, 2 mM HEPES, 5 mM probenecid (Sigma) and 3 μM of the fluorescent calcium indicator fluo-3 AM (1 mM stock solution in DMSO with 10% pluronic acid) (Molecular Probes) is added to each well.
(§7) The 96-well plates are incubated for 60 min at 37° C. in 5% CO2. The loading solution is then aspirated and cells are washed 3 times with 200 μl HBSS containing 2.5 mM probenecid, 0.1% BSA, 2 mM HEPES. 100 μl of that same buffer is left in each well.
(§8) Within the Fluorescent Imaging Plate Reader (FLIPR, Molecular Devices), antagonists are added to the plate in a volume of 50 μl, incubated for 20 min and finally 100 μl of agonist is added. Fluorescence is measured for each well at 1 second intervals, and the height of each fluorescence peak is compared to the height of the fluorescence peak induced by 10 nM orexin-A with buffer in place of antagonist. For each antagonist, IC50 value (the concentration of compound needed to inhibit 50% of the agonistic response) is determined. Antagonistic activities of compounds are in the nanomolar range with respect to OX1 and OX2 receptors.

human orexin-2 receptor = target: T2, human orexin-2 receptor (Homo sapiens, UniProt O43614); assay: Intracellular calcium measurements (FLIPR), orexin-A induced, CHO cells expressing human orexin-2 receptor; assay type: cell-based; conditions: 10 nM orexin-A as agonist, read-out: IC50 OX2
T2 construct: expressed in transfected cells; host or cells: CHO cells (G418 selection)
T2 sequence (O43614 1-444): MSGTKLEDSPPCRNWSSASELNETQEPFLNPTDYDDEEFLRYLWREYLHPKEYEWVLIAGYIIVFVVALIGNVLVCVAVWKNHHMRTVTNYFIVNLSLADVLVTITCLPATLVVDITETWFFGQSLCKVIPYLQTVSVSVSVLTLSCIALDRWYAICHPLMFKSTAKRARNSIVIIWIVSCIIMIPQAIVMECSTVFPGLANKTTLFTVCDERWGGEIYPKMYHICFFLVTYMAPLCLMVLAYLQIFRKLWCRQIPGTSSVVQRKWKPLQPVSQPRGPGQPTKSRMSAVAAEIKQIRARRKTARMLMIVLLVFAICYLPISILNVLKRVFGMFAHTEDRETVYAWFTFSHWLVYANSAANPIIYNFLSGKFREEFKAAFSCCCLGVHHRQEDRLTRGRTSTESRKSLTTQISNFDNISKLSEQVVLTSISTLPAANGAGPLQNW
Experimental: as §1, §2, §3, §4, §5, §6, §7, §8

| Structure (SMILES) | pIC50 (human orexin-1 receptor) | pIC50 (human orexin-2 receptor) |
| --- | --- | --- |
| CCn1nc(C)c2c1CCN([C@@H](C(=O)NC)c1ccccc1)[C@H]2CCc1ccc(C)cc1 (stereo in doubt) [Example 6, 2-[1-Ethyl-3-methyl-4-(2-p-tolyl-ethyl)-1,4,6,7-tetrahydro-pyrazolo[4,3-c]pyridin-5-yl]-N-methyl-2-phenyl-acetamide] | 7.12 | 8.40 |
| CCn1nc(C)c2c1CCN([C@@H](C(=O)NC)c1ccccc1)[C@H]2CCc1ccc(C)c(F)c1 [Example 32, 2-{1-Ethyl-4-[2-(3-fluoro-4-methyl-phenyl)-ethyl]-3-methyl-1,4,6,7-tetrahydro-pyrazolo[4,3-c]pyridin-5-yl}-N-methyl-2-phenyl-acetamide] | 7.31 | 8.70 |
| CCn1nc(C)c2c1CCN([C@@H](C(=O)NC)c1ccccc1)[C@H]2CCc1ccc(C)c(C)c1 [Example 33, 2-{4-[2-(3,4-Dimethyl-phenyl)-ethyl]-1-ethyl-3-methyl-1,4,6,7-tetrahydro-pyrazolo[4,3-c]pyridin-5-yl}-N-methyl-2-phenyl-acetamide] | 7.70 | 8.40 |

Next, values leading:

| pIC50 (human orexin-1 receptor) | pIC50 (human orexin-2 receptor) | Structure (SMILES) |
| --- | --- | --- |
| 7.31 | 8.52 | CCn1nc(C)c2c1CCN(C(C(=O)NC)c1ccccc1)C2CCc1cc(C(F)(F)F)ccc1F (stereo not drawn) [Example 3, 2-{1-Ethyl-4-[2-(2-fluoro-5-trifluoromethyl-phenyl)-ethyl]-3-methyl-1,4,6,7-tetrahydro-pyrazolo[4,3-c]pyridin-5-yl}-N-methyl-2-phenyl-acetamide] |
| 7.28 | 8.10 | CCn1nc(C)c2c1CCN([C@@H](C(=O)NC)c1ccccc1)[C@H]2CCc1ccc(C(F)(F)F)cc1F [Example 31, 2-{1-Ethyl-4-[2-(2-fluoro-4-trifluoromethyl-phenyl)-ethyl]-3-methyl-1,4,6,7-tetrahydro-pyrazolo[4,3-c]pyridin-5-yl}-N-methyl-2-phenyl-acetamide] |
| 6.88 | 8.15 | CCn1nc(C)c2c1CCN([C@@H](C(=O)NC)c1ccccc1)[C@H]2CCc1ccc(C)cc1C [Example 35, 2-{4-[2-(2,4-Dimethyl-phenyl)-ethyl]-1-ethyl-3-methyl-1,4,6,7-tetrahydro-pyrazolo[4,3-c]pyridin-5-yl}-N-methyl-2-phenyl-acetamide] |
